Measurements from patent publication US6331548A, “1-cycloalkyl-1,8-naphthyridin-4-one derivative as type IV phosphodiesterase inhibitor” (Suntory Limited, priority 1998, dated 2001).
Structures can show the parent of a compound that is named as a salt.

What was measured:
[1] = system: TNF-α production by LPS stimulated macrophages; experiment: TNF-α production inhibitory activity by LPS stimulated macrophages; format: cell-based; conditions: Macrophage, BALB/c mouse peritoneal macrophages, cultured for 8 hours, ELISA
Experimental: The following assay was used to evaluate the ability of the compound of the present invention to suppress TNF-α production by LPS stimulated macrophages according to Immunopharmacol. 29, 121-127 (1995).
1) 6 to 10 week old female BALB/c mice were used, 2 ml portions of thioglycolate were intraperitoneally administered, and the abdominal cavities were washed by 10 ml of PBS after 4 days, whereby 1 to 2×10^7 peritoneal cells were obtained per mouse. These were suspended in a hemocyte solution (0.75% ammonium chloride, 17 mM tris-hydrochlorate buffer, pH7.2), centrifuged, then resuspended in an RPMI1640 medium including 10% fetal calf serum and seeded in a 96-well cell culture plate at a density of 1×10^5 cells/50 μl/well. Since these cells adhered strongly to the tissue culture plate and were positive in nonspecific esterase staining, they were used for the test as mouse peritoneal macrophages. Mouse peritoneal macrophages were precultured overnight at 37° C. in […] for the experiment.
2) E. Coli (serum type 055:B5) derived LPS was dissolved in PBS in a concentration of 1 mg/ml, then sterilized by filtration. The test compound was dissolved in DMSO to make a 1000-fold concentration solution of the final concentration of use. 10 μl of the above LPS stock solution (final concentration 10 μg/ml) and 1 μl of the tested substance stock solution were added and mixed in 0.5 ml of RPMI1640 medium containing 10% fetal calf serum. This was added to the above cells at 50 μl/well and cultured for 8 hours. The cultured supernatant was recovered from each well and the TNF-α concentration was measured by the ELISA method (Cytoscreen® Immunoassay Kit Mouse TNF-α, BioSourse International).
The comparative example was the compound described in WO-A-97-04775, Example 1, mentioned above.

[2] = target: type IV phosphodiesterase; experiment: Type IV phosphodiesterase inhibiting activity; format: biochemical, human; conditions: U937 type IV phosphodiesterase fraction, 0.28 μM cAMP, pH 7.5, 30° C., 30 minutes; read-out: PDEIV-IC50
Experimental: The following assay was used to evaluate the ability of the compound of the present invention to suppress type IV phosphodiesterase, according to Biochemical. Pharmacol. 48 (6), 1219-1223 (1994).
1) Type IV phosphodiesterase activity fractions were prepared as follows. Namely, human histiocytic lymphoma cell line U937 was cultured in an RPMI1640 medium containing 10% fetal calf serum to obtain 10^9 cells of U937. The cells were recovered by centrifugation and suspended in 40 ml of buffer A (20 mM bis-tris, 5 mM 2-mercaptoethanol, 2 mM benzamidine, 2 mM EDTA, 0.1 mM 4-(2-aminoethyl)benzensulfonyl hydrochloride, 50 mM sodium acetate, pH=6.5). The cells were broken by a sonication and centrifuged (4° C., 10,000 G, 10 minutes) to obtain a supernatant. This was filtered by a 0.45 μm filter to obtain the soluble fraction.
2) The soluble fraction obtained was applied into a 1×10 cm DEAE Sepharose column equalibrated with the buffer A. 120 ml of the buffer A containing a linear gradient solution of 0.05 to 1M sodium acetate was used to separate the phosphodiesterase and recover 24 5-ml fractions. Each of the fractions was measured for the cAMP phosphodiesterase activity.
3) The test compound was reacted at a desired concentration in a reaction mixture containing 20 mM tris-HCl (pH 7.5), 1 mM MgCl2, 100 μM EDTA, 330 μg/ml calf serum albumin, 10 μg/ml 5'-nucleotidase, 0.4 μCi ^3 H-cAMP (0.28 μM cAMP) and the type IV phosphodiesterase stored solution at 30° C. for 30 minutes. QAE-Sephadex suspended in 10 mM of hepes-Na (pH -7.0) was added to the reaction mixture which was then allowed to stand for 5 minutes, then the supernatant was obtained, QAE-Sephadex was further added, to the supernatant, and was allowed to stand for 5 minutes, then the supernatant was obtained and measured for radioactivity.

IC50 [1] [nM]	IC50 [2] [nM]	Structure (SMILES)
10	2.7	O=C(Nc1c(Cl)cncc1Cl)c1cn([C@H]2CCOC2)c2ncccc2c1=O [Example 44, N-(3,5-dichloropyridine-4-yl)-1-[(S)-tetrahydro-3-furanyl]-1,4-dihydro[1,8]naphthylidin-4-one-3-carboxamide]
200	22	O=C(CN1CCC(n2cc(C(=O)Nc3c(Cl)cncc3Cl)c(=O)c3cccnc32)CC1)OCc1ccccc1 [Example 49, benzyl 2-{4-[3-[(3,5-dichloropyridin-4-yl)amino]carbonyl-1,4-dihydro[1,8]naphthylidin-4-one-1-yl]piperidino}acetate]
2500	190	O=C(Nc1ccncc1)c1cn([C@H]2CCOC2)c2ncccc2c1=O [Example 43, N-(4-pyridyl)-1-[(S)-tetrahydro-3-furanyl]-1,4-dihydro[1,8]naphthylidin-4-one-3-carboxamide]
100	23	COC(=O)N1CC[C@H](n2cc(C(=O)Nc3c(Cl)cccc3Cl)c(=O)c3cccnc32)C1 [Example 9, (S)-N-(2,6-dichlorophenyl)-1-(1-methoxycarbonylpyrrolidin-3-yl)-1,4-dihydro[1,8]naphthyridin-4-one-3-carboxamide]
–	60	COC(=O)N1CCC(n2cc(C(=O)Nc3c(Cl)cccc3Cl)c(=O)c3cccnc32)C1 (racemic) [Example 4, (±)-N-(2,6-dichlorophenyl)-1-(1-methoxycarbonylpyrrolidin-3-yl)-1,4-dihydro[1,8]naphthyridin-4-one-3-carboxamide]
–	2.3	CCOC(=O)N1CCC(n2cc(C(=O)Nc3c(Cl)cncc3Cl)c(=O)c3cccnc32)CC1 [Example 62, N-(3,5-dichloropyridin-4-yl)-1-(1-ethoxycarbonylpiperidin-4-yl)-1,4-dihydro[1,8]naphthylidin-4-one-3-carboxamide]
–	1.2	O=C(Nc1c(Cl)cncc1Cl)c1cn([C@@H]2CC[C@@H](O)C2)c2ncccc2c1=O [Example 79, N-(3,5-dichloropyridin-4-yl)-1-[(1R,3R)-3-(hydroxy)cyclopentyl]-1,4-dihydro[1,8]naphthylidin-4-one-3-carboxamide]
–	150	O=C(Nc1cccnc1)c1cn(C2CC2)c2ncccc2c1=O [Example 156, N-(3-pyridyl)-1-cyclopropyl-1,4-dihydro[1,8]naphthylidin-4-one-3-carboxamide]
–	0.5	CCNC(=O)N[C@H]1CC[C@H](n2cc(C(=O)Nc3c(Cl)cncc3Cl)c(=O)c3cccnc32)CC1 [Example 71, N-(3,5-dichloropyridin-4-yl)-1-[trans-4-(ethylaminocarbonylamino)cyclohexyl]-1,4-dihydro[1,8]naphthylidin-4-one-3-carboxamide]
–	130	Cc1cnccc1NC(=O)c1cn(C2CC2)c2ncccc2c1=O [Example 157, N-(3-methylpyridin-4-yl)-1-cyclopropyl-1,4-dihydro[1,8]naphthylidin-4-one-3-carboxamide]
–	6	O=C(O[C@H]1CC[C@H](n2cc(C(=O)Nc3c(Cl)cncc3Cl)c(=O)c3cccnc32)CC1)c1cccc(CN2CCOCC2)c1 [Example 162, trans-4-[3-{[(3,5-dichloro-4-pyridinyl)amino]carbonyl}-4-oxo[1,8]naphthylidin-1(4H)-yl]cyclohexyl 3-(morpholinomethyl)benzoate hydrochloride]
–	50	O=C(O[C@H]1CC[C@H](n2cc(C(=O)Nc3c(Cl)cncc3Cl)c(=O)c3cccnc32)CC1)c1ccccc1 [Example 130, trans-4-[3-{[(3,5-dichloro-4-pyridinyl)amino]carbonyl}-4-oxo[1,8]naphthylidin-1(4H)-yl]cyclohexylbenzoate]
100	–	COc1ccc(C2CNC(=O)C2)cc1OC1CCCC1 (stereo not shown) [Rolipram, reference compound]
–	1.3	CC(=O)O[C@H]1CC[C@@H](n2cc(C(=O)Nc3c(Cl)cncc3Cl)c(=O)c3cccnc32)CC1 [Example 118]

Structure (SMILES)	IC50 [1] [nM]	IC50 [2] [nM]
O=C(NC1CCC1)c1cn([C@H]2CC[C@H](O)CC2)c2ncccc2c1=O [Example 164]	–	400
